Key:
[1] = tested on: Cy5-labeled Bsu PreQ1 aptamer (RNA, riboswitch) GCGGGAGAGGUUCUAGCUACACCCUCUAUAAAAAACUAAGGACGAGCUGUAUCCUUGGAUACGGCC; assay: MST; conditions: 100 mM KCl, 1 mM MgCl2, 50 mM Tris pH 7.5, room temperature, DMSO
[2] = tested on: Cy5-labeled Bsu PreQ1 aptamer (RNA, riboswitch) GCGGGAGAGGUUCUAGCUACACCCUCUAUAAAAAACUAAGGACGAGCUGUAUCCUUGGAUACGGCC; assay: Cy5 fluorescence intensity assay (text says ligand fluorescence); conditions: 100 mM KCl, 1 mM MgCl2; 50 mM Tris pH 7.5, room temperature, 5% DMSO, 50 nM RNA
[3] = tested on: Tte-PreQ1 ab13_14_15 (RNA, riboswitch, abasic at 13, 14 and 15) CUGGGUCGCAGUNNNCCCAGUUAACAAAACAAG; assay: X-ray crystallography, 2.25 Å; conditions: potassium sodium tartrate 100-300 mM; sodium citrate pH 5.6, ammonium sulfate 2.0-2.6 M, 20 °C
[4] = tested on: Cy5-labeled Bsu PreQ1 aptamer (RNA, riboswitch) GCGGGAGAGGUUCUAGCUACACCCUCUAUAAAAAACUAAGGACGAGCUGUAUCCUUGGAUACGGCC; assay: MST (Figure S1 legend); text says ligand fluorescence; conditions: 100 mM KCl, 1 mM MgCl2; 50 mM Tris pH 7.5, room temperature, DMSO
[5] = tested on: S. pneumoniae PreQ1 (SHAPE-MaP) (RNA, riboswitch) GGGCCUUCGGGCCAACUUGGUGCUUAGCUUCUUUCACCAAGCAUAUUACACGCGGAUAACCGCCAAAGGAGAAUCGAUCCGGUUCGCCGGAUCCAAAUCGGGCUUCGGUCCGGUUC; assay: SHAPE-MaP (2A3); conditions: 100 mM KCl, 1 mM MgCl2
[6] = tested on: Bsu PreQ1 RNA (MAGNA) (RNA, riboswitch) UCGGCGAUCUACGCAGCGACAUAAUAAGAGGUUCUAGCUACACCCUCUAUAAAAAACUAAUAACAACCACUUCCUAAUCUGUCAUCUUCUG; assay: magnetic force spectroscopy (MAGNA), median unfolding force; conditions: 100 mM KCl, 1 mM MgCl2; 50 mM HEPES pH 7.4, 1% DMSO, 22 °C; from refolding force 456±258 μM
[7] = tested on: F. prausnitzii PreQ1 (SHAPE-MaP) (RNA, riboswitch) GGGCCUUCGGGCCAAGGAACGCUGAAAGAGCAACUUAGGAUUUUAGGCUCCCCGGCGUGUCUCGAACCAUGCCGGGCCAAACCCAUAGGGCUGGCGGUCCCUGUGCGGUCAAAAUUCAUCCGCCGGAGUAUUGUUAUCGAUCCGGUUCGCCGGAUCCAAAUCGGGCUUCGGUCCGGUUC; assay: SHAPE-MaP (2A3); conditions: 100 mM KCl, 1 mM MgCl2
[8] = tested on: Tte-PreQ1 ab13_14_15 (RNA, riboswitch, abasic at 13, 14 and 15) CUGGGUCGCAGUNNNCCCAGUUAACAAAACAAG; assay: X-ray crystallography, 2.15 Å; conditions: potassium sodium tartrate 100-300 mM; sodium citrate pH 5.6, ammonium sulfate 2.0-2.6 M, 20 °C
[9] = tested on: L. rhamnosus PreQ1 (SHAPE-MaP) (RNA, riboswitch) GGGCCUUCGGGCCAAGGAACCGCCCCGCGCGCUUCCACGAUACUUAUUUCCUUUGAUCGUCGUUAUUACUGGCAAAGCCACAAAGGAGUCGAUCCGGUUCGCCGGAUCCAAAUCGGGCUUCGGUCCGGUUC; assay: SHAPE-MaP (2A3); conditions: 100 mM KCl, 1 mM MgCl2
[10] = tested on: B. subtilis PreQ1 (SHAPE-MaP) (RNA, riboswitch) GGGCCUUCGGGCCAAGCGGGAGAGGUUCUAGCUACACCCUCUAUAAAAAACUAAGGACGAGCUGUAUCCUUGGAUACGGCCUUUUUCGAUCCGGUUCGCCGGAUCCAAAUCGGGCUUCGGUCCGGUUC; assay: SHAPE-MaP (2A3); conditions: 100 mM KCl, 1 mM MgCl2
[11] = tested on: Bsu PreQ1 RNA (MAGNA) (RNA, riboswitch) UCGGCGAUCUACGCAGCGACAUAAUAAGAGGUUCUAGCUACACCCUCUAUAAAAAACUAAUAACAACCACUUCCUAAUCUGUCAUCUUCUG; assay: magnetic force spectroscopy (MAGNA); conditions: 100 mM KCl, 1 mM MgCl2; 50 mM HEPES pH 7.4, 1% DMSO, 22 °C; 500 nM called saturating
[12] = tested on: T. tengcongensis PreQ1 (SHAPE-MaP) (RNA, riboswitch) GGGCCUUCGGGCCAACUCACCUGGGUCGCAGUAACCCCAGUUAACAAAACAAGGGAGGUAAUUUUUCGAUCCGGUUCGCCGGAUCCAAAUCGGGCUUCGGUCCGGUUC; assay: SHAPE-MaP (2A3); conditions: 100 mM KCl, 1 mM MgCl2; 50 mM Tris pH 7.5, 10 μM compound
[13] = 50 mM Tris pH 7.5, 150 μM compound
[14] = 50 mM Tris pH 7.5, 10 μM compound

Compound `COc1ccc2c(c1)NC(=O)c1cc(N)ccc1O2` has a KD [1] of 1.9 ± 0.2 µM.

In the case of `CN(C)CCOc1ccc2sc3ccccc3c(=O)c2c1`, the KD [1] is reported as 58 ± 30 µM.

For `Cc1nccc2c1[nH]c1cc(OCCN(C)C)ccc12`, the KD [2] was 104.4 ± 20 µM and the binding [3] was “yes”.

Compound `COc1ccc2c(c1)Oc1ccc(N)cc1C(=O)N2` has a KD [1] of 18.3 ± 7.0 µM.

With `NC(=O)COc1ccc2oc3ccccc3c(=O)c2c1` the KD [4] was over 500 µM.

`CN(C)CCOc1ccc2oc3ccccc3c(=O)c2c1` was tested, and the binding [5, 13] was “yes”, the EC50 [6] was 394 ± 157 µM and the binding [7, 13] was “yes”. The binding [8] was “yes”, the binding [9, 13] was “yes” and the binding [10, 13] was “yes”.

For `NCc1c[nH]c2nc(N)[nH]c(=O)c12`, the binding [11] was “yes”, the binding [5, 14] was “yes” and the binding [7, 14] was “yes”. For the same compound, the binding [12] was “yes”, the binding [9, 14] was “yes” and the binding [10, 14] was “yes”.

With `CNc1cc2c(=O)c3cc(O)ccc3oc2cn1` the binding ([1]; tested up to 500 μM) was “no”.

Source: paper doi:10.1101/2024.02.23.581746 (2024)
